The source made the active and inactive calls. The rule behind the calls is not given here.
tested on: K562; experiment: Antiproliferative activity against human K562 cells by MTT assay; format: functional, cell-based; conditions: not given

Structure (SMILES)	IC50 [µM]
O=C(CCCCCNC(=S)N/N=C(\c1ccccc1)c1ccc([N+](=O)[O-])cc1)NO	2.89
O=C(CCCCCNC(=S)NN=C(c1ccccc1)c1ccccc1)NO	3.81
COc1cccc2c1C(=O)c1c(O)c3c(c(O)c1C2=O)C[C@@](O)(C(=O)CO)C[C@@H]3O[C@H]1C[C@H](N)[C@H](O)[C@H](C)O1.Cl [DOXORUBICIN HYDROCHLORIDE]	0.83
COc1ccccc1/C(=N/NC(=S)NCCCCCC(=O)NO)c1ccccc1	3.56
C/C(=N\NC(=S)NCCCCCC(=O)NO)c1ccc(Br)cc1	0.96

tested on: K562/A02; experiment: Antiproliferative activity against human K562/A02 cells overexpressing P-gp by MTT assay; format: functional, cell-based; conditions: not given

Structure (SMILES)	IC50 [µM]
O=C(CCCCCNC(=S)N/N=C(\c1ccccc1)c1ccc([N+](=O)[O-])cc1)NO	4.53
O=C(CCCCCNC(=S)NN=C(c1ccccc1)c1ccccc1)NO	3.64
COc1cccc2c1C(=O)c1c(O)c3c(c(O)c1C2=O)C[C@@](O)(C(=O)CO)C[C@@H]3O[C@H]1C[C@H](N)[C@H](O)[C@H](C)O1.Cl [DOXORUBICIN HYDROCHLORIDE]	23.4
COc1ccccc1/C(=N/NC(=S)NCCCCCC(=O)NO)c1ccccc1	2.91
C/C(=N\NC(=S)NCCCCCC(=O)NO)c1ccc(Br)cc1	0.44

tested on: not listed separately; experiment: Resistance index, ratio of IC50 for human K562/A02 cells to IC50 for human K562 cells; format: functional; set-up: reference not given here; conditions: not given

Structure (SMILES)	Ratio IC50
O=C(CCCCCNC(=S)N/N=C(\c1ccccc1)c1ccc([N+](=O)[O-])cc1)NO	1.57
O=C(CCCCCNC(=S)NN=C(c1ccccc1)c1ccccc1)NO	0.96
COc1cccc2c1C(=O)c1c(O)c3c(c(O)c1C2=O)C[C@@](O)(C(=O)CO)C[C@@H]3O[C@H]1C[C@H](N)[C@H](O)[C@H](C)O1.Cl [DOXORUBICIN HYDROCHLORIDE]	28.21
COc1ccccc1/C(=N/NC(=S)NCCCCCC(=O)NO)c1ccccc1	0.82
C/C(=N\NC(=S)NCCCCCC(=O)NO)c1ccc(Br)cc1	0.46

biological target: Histone deacetylase 1 (Homo sapiens, UniProt Q13547); experiment: Inhibition of recombinant human HDAC1 using Boc-Lys(Ac)-AMC as substrate incubated for 60 mins by fluorimetric assay; conditions: not given
Sequence (Q13547 whole entry): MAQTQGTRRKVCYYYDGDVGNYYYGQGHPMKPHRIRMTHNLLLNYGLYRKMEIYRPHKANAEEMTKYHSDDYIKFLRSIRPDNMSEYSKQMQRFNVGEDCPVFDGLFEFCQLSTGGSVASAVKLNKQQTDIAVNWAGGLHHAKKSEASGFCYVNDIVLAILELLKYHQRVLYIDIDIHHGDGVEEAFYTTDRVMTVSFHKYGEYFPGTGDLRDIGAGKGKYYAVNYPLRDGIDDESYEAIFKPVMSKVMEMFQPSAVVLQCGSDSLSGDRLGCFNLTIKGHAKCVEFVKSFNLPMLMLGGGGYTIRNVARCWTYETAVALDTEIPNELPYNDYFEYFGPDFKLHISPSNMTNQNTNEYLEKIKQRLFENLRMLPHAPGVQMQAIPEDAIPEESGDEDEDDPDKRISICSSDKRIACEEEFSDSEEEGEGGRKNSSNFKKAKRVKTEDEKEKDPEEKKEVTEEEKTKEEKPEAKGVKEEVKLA

Structure (SMILES)	IC50 [µM]
C/C(=N\NC(=S)NCCCCCC(=O)NO)c1ccc(Br)cc1	0.0386

biological target: T1, Protein deacetylase HDAC6 (Homo sapiens, UniProt Q9UBN7); experiment: Inhibition of recombinant human HDAC6 using Boc-Lys(Ac)-AMC as substrate incubated for 60 mins by fluorimetric assay; conditions: not given
T1 sequence (Q9UBN7 whole entry): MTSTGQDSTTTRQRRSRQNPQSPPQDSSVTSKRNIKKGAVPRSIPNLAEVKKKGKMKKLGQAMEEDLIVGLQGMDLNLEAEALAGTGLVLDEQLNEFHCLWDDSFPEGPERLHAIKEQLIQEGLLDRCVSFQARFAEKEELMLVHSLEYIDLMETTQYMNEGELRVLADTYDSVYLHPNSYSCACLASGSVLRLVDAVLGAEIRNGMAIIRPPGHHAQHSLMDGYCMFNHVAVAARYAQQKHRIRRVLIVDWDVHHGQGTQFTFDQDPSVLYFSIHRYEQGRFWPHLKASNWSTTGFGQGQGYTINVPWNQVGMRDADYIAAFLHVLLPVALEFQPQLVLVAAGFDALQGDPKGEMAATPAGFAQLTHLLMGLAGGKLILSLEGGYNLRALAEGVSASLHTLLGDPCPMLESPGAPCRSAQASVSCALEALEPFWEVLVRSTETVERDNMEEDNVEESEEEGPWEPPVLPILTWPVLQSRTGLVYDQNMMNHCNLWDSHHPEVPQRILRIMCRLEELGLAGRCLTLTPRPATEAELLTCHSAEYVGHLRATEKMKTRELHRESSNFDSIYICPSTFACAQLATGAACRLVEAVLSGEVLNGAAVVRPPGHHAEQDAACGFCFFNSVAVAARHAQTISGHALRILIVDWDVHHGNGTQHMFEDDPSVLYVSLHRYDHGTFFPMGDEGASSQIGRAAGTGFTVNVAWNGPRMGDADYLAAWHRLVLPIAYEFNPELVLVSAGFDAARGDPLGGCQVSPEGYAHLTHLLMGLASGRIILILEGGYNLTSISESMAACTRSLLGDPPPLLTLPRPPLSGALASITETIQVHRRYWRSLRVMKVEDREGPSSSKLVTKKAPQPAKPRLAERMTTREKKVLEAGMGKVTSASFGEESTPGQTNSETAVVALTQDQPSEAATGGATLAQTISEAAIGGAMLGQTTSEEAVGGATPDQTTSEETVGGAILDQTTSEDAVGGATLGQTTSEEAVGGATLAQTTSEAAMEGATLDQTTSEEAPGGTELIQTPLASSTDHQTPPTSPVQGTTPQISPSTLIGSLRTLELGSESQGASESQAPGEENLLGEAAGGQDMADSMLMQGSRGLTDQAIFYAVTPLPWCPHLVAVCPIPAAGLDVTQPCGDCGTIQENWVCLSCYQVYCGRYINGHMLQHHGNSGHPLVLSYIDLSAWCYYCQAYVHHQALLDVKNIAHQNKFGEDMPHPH

Structure (SMILES)	IC50 [µM]
C/C(=N\NC(=S)NCCCCCC(=O)NO)c1ccc(Br)cc1	0.0346

biological target: T2, Histone deacetylase 8 (Homo sapiens, UniProt Q9BY41); experiment: Inhibition of recombinant human HDAC8 using Boc-Lys(Ac)-AMC as substrate incubated for 60 mins by fluorimetric assay; conditions: not given
T2 sequence (Q9BY41 whole entry): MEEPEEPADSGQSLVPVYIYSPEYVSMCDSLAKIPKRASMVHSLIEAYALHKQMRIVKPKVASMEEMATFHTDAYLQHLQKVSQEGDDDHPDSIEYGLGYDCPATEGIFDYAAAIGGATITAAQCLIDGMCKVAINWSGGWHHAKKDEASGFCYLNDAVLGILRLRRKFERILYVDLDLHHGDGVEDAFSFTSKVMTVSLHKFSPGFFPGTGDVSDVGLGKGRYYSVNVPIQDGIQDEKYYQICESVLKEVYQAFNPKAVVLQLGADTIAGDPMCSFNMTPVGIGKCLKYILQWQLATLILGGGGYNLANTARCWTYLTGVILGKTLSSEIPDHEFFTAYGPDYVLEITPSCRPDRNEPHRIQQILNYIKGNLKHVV

Structure (SMILES)	IC50 [µM]
C/C(=N\NC(=S)NCCCCCC(=O)NO)c1ccc(Br)cc1	> 5

tested on: K562; experiment: Induction of ROS generation in human K562 cells at 1 to 3 uM by DCFHA-DA based assay; format: functional, cell-based; conditions: dose microM 1-3

Structure (SMILES)	Activity
C/C(=N\NC(=S)NCCCCCC(=O)NO)c1ccc(Br)cc1	inactive

tested on: K562/A02; experiment: Induction of ROS generation in human K562/A02 cells by DCFHA-DA based assay; format: functional, cell-based; conditions: dose microM 1-3

Structure (SMILES)	Activity
C/C(=N\NC(=S)NCCCCCC(=O)NO)c1ccc(Br)cc1	Dose-dependent effect

tested on: K562/A02; experiment: Induction of ROS generation in human K562/A02 cells at 3 uM in presence of ROS scavenger, NAC by DCFHA-DA based assay; format: functional, cell-based; conditions: not given

Structure (SMILES)	Activity
C/C(=N\NC(=S)NCCCCCC(=O)NO)c1ccc(Br)cc1	inactive

tested on: K562/A02; experiment: Cytotoxicity against human K562/A02 cells at 3 uM incubated for 24 hrs in presence of ROS scavenger, NAC by MTT assay; format: functional, cell-based; conditions: not given

Structure (SMILES)	Activity
C/C(=N\NC(=S)NCCCCCC(=O)NO)c1ccc(Br)cc1	inactive

tested on: K562/A02; experiment: Effect on P-gp expression in human K562/A02 cells overexpressing P-gp; format: functional, cell-based; conditions: not given

Structure (SMILES)	Activity
C/C(=N\NC(=S)NCCCCCC(=O)NO)c1ccc(Br)cc1	Active

tested on: K562/A02; experiment: Induction of apoptosis in human K562/A02 cells assessed as viable cells at 1 uM incubated for 48 hrs by annexin V and propidium iodide staining based flow cytometry (reference value: 92.94 %); format: functional; conditions: read-out: Activity

Structure (SMILES)	viability at 1 µM [%]
C/C(=N\NC(=S)NCCCCCC(=O)NO)c1ccc(Br)cc1	27.2

tested on: K562/A02; experiment: Induction of apoptosis in human K562/A02 cells assessed as early apoptotic cells at 1 uM incubated for 48 hrs by annexin V and propidium iodide staining based flow cytometry (reference value: 1.42 %); format: functional; conditions: not given

Structure (SMILES)	Activity [%]
C/C(=N\NC(=S)NCCCCCC(=O)NO)c1ccc(Br)cc1	16.35

tested on: K562/A02; experiment: Induction of apoptosis in human K562/A02 cells assessed as late apoptotic cells at 1 uM incubated for 48 hrs by annexin V and propidium iodide staining based flow cytometry (reference value: 0.83 %); format: functional; conditions: not given

Structure (SMILES)	Activity [%]
C/C(=N\NC(=S)NCCCCCC(=O)NO)c1ccc(Br)cc1	52

tested on: K562/A02; experiment: Induction of apoptosis in human K562/A02 cells assessed as necrotic cells at 1 uM incubated for 48 hrs by annexin V and propidium iodide staining based flow cytometry (reference value: 4.81 %); format: functional; conditions: not given

Structure (SMILES)	Activity [%]
C/C(=N\NC(=S)NCCCCCC(=O)NO)c1ccc(Br)cc1	4.4

tested on: K562/A02; experiment: Induction of apoptosis in human K562/A02 cells assessed as viable cells at 3 uM incubated for 48 hrs by annexin V and propidium iodide staining based flow cytometry (reference value: 92.94 %); format: functional; conditions: read-out: Activity

Structure (SMILES)	viability at 3 µM [%]
C/C(=N\NC(=S)NCCCCCC(=O)NO)c1ccc(Br)cc1	18.9

tested on: K562/A02; experiment: Induction of apoptosis in human K562/A02 cells assessed as early apoptotic cells at 3 uM incubated for 48 hrs by annexin V and propidium iodide staining based flow cytometry (reference value: 1.42 %); format: functional; conditions: not given

Structure (SMILES)	Activity [%]
C/C(=N\NC(=S)NCCCCCC(=O)NO)c1ccc(Br)cc1	22.28

tested on: K562/A02; experiment: Induction of apoptosis in human K562/A02 cells assessed as late apoptotic cells at 3 uM incubated for 48 hrs by annexin V and propidium iodide staining based flow cytometry (reference value: 0.83 %); format: functional; conditions: not given

Structure (SMILES)	Activity [%]
C/C(=N\NC(=S)NCCCCCC(=O)NO)c1ccc(Br)cc1	53.69

tested on: K562/A02; experiment: Induction of apoptosis in human K562/A02 cells assessed as necrotic cells at 3 uM incubated for 48 hrs by annexin V and propidium iodide staining based flow cytometry (reference value: 4.81 %); format: functional; conditions: not given

Structure (SMILES)	Activity [%]
C/C(=N\NC(=S)NCCCCCC(=O)NO)c1ccc(Br)cc1	5.18

tested on: K562/A02; experiment: Up regulation of acetylated histone H3 expression level in human K562/A02 cells at 1 to 3 uM measured after 48 hrs by Western blot analysis; format: functional, cell-based; conditions: dose microM 1-3, time 48.0 hrs

Structure (SMILES)	Activity
C/C(=N\NC(=S)NCCCCCC(=O)NO)c1ccc(Br)cc1	Active

tested on: K562/A02; experiment: Up regulation of acetylated histone H4 expression level in human K562/A02 cells at 1 to 3 uM measured after 48 hrs by Western blot analysis; format: functional, cell-based; conditions: dose microM 1-3, time 48.0 hrs

Structure (SMILES)	Activity
C/C(=N\NC(=S)NCCCCCC(=O)NO)c1ccc(Br)cc1	Active

tested on: K562/A02; experiment: Induction of apoptosis in human K562/A02 cells assessed as increase in Bax expression incubated for 48 hrs by Western blot analysis; format: functional, cell-based; conditions: dose microM 1-3, time 48.0 hrs

Structure (SMILES)	Activity
C/C(=N\NC(=S)NCCCCCC(=O)NO)c1ccc(Br)cc1	Dose-dependent effect

tested on: K562/A02; experiment: Induction of apoptosis in human K562/A02 cells assessed as decrease in Bcl2 expression incubated for 48 hrs by Western blot analysis; format: functional, cell-based; conditions: dose microM 1-3, time 48.0 hrs

Structure (SMILES)	Activity
C/C(=N\NC(=S)NCCCCCC(=O)NO)c1ccc(Br)cc1	Dose-dependent effect

tested on: K562/A02; experiment: Induction of apoptosis in human K562/A02 cells assessed as increase in cleaved caspase 3 expression incubated for 48 hrs by Western blot analysis; format: functional, cell-based; conditions: dose microM 1-3, time 48.0 hrs

Structure (SMILES)	Activity
C/C(=N\NC(=S)NCCCCCC(=O)NO)c1ccc(Br)cc1	Dose-dependent effect

tested on: K562/A02; experiment: Induction of apoptosis in human K562/A02 cells assessed as increase in cleaved PARP expression incubated for 48 hrs by Western blot analysis; format: functional, cell-based; conditions: dose microM 1-3, time 48.0 hrs

Structure (SMILES)	Activity
C/C(=N\NC(=S)NCCCCCC(=O)NO)c1ccc(Br)cc1	Dose-dependent effect

tested on: K562/A02; experiment: Effect on P-gp activity in human K562/A02 cells; format: cell-based; conditions: filed as modulator

Structure (SMILES)	Activity
C/C(=N\NC(=S)NCCCCCC(=O)NO)c1ccc(Br)cc1	Active

Source: ChEMBL document CHEMBL4699612, “Discovery of thiosemicarbazone-containing compounds with potent anti-proliferation activity against drug-resistant K562/A02 cells” (Bioorg Med Chem Lett, 2020)
